These results are taken from patent US6608082B1, “Treatment of erectile dysfunction using isoquinoline compound melanocortin receptor ligands” (Lion Bioscience AG, priority 1998, dated 2003).

Molecules are shown by their SMILES.

Assay [1] deals with T1, MCR-4 (Homo sapiens, UniProt P32245).
T1 construct: expressed in transfected cells; host or cells: HEK 293
Kind of assay: Melanocortin receptor binding assay, competition with 125I-HP 467, HEK 293 cells expressing hMCR-4. The note with it: inhibition of binding of 125I-HP 467, HEK 293 cells expressing MCR-4; read-out: MC-4 IC50. The procedure, abridged: (§1)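 Intact-cell competition binding, 2.5 hr at 37 °C, in PBS/10% calf serum/1 mM CaCl2; hMCR-4 cells at 4×10^3 per tube, hMCR-1 cells at 2×10^4 per tube. Filtration on BSA/CaCl2-soaked GF/B, cold 50 mM Tris pH 7.4 washes, scintillation count.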

Assay [2] has as its target T2, MCR-1 (Homo sapiens, UniProt Q01726).
T2 construct: expressed in transfected cells; host or cells: HEK 293
In words: Melanocortin receptor binding assay, competition with 125I-HP 467, HEK 293 cells expressing hMCR-1. The note with it: inhibition of binding of 125I-HP 467, HEK 293 cells expressing MCR-1; read-out: MC-1 IC50. In a few lines:
as §1

T1 sequence (P32245 whole entry): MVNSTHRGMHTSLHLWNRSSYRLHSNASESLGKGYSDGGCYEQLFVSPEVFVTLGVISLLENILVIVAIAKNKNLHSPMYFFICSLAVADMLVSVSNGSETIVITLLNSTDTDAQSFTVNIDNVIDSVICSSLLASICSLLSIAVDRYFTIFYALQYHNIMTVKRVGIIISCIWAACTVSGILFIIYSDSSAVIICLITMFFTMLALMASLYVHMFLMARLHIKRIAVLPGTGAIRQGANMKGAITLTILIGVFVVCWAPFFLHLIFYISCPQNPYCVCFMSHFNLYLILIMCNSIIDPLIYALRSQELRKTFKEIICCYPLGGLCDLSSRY
T2 sequence (Q01726 whole entry): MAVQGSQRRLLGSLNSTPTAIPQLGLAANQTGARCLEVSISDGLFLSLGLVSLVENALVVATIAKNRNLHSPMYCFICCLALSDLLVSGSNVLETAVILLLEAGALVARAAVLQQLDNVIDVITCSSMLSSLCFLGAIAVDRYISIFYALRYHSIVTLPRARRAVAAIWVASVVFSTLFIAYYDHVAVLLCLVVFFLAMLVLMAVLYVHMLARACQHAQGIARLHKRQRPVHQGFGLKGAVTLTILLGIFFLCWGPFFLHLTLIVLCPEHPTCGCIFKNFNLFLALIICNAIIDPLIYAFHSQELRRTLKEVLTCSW

With `NCC(CCCCN1Cc2ccccc2C(CNCCc2ccc(O)cc2)C1c1cc(C(F)(F)F)cc(C(F)(F)F)c1)NCc1ccccc1` (centres unmarked) [TRG 2421-6], the figures for the IC50 in assay [1] and in assay [2] were 0.76 µM and 2.25 µM, respectively.

As for `Cc1ccc(CNC(CN)CCCCN2Cc3ccccc3C(CNCCc3ccc(O)cc3)C2c2cc(C(F)(F)F)cc(C(F)(F)F)c2)cc1` (centres unmarked) [TRG 2421-7], the IC50 in assay [1] came out at 4.53 µM; in assay [2] it was 3.19 µM.

Turning to `COc1ccc(CNC(CN)CCCCN2Cc3ccccc3C(CNCCc3ccc(O)cc3)C2c2cc(C(F)(F)F)cc(C(F)(F)F)c2)cc1` (centres unmarked) [TRG 2421-9], the figures for the IC50 in assay [1] and in assay [2] were 1.75 µM and 1.5 µM, respectively.

For the compound `NCC(CCCCN1Cc2ccccc2C(CNCCc2ccc(O)cc2)C1c1cc(C(F)(F)F)cc(C(F)(F)F)c1)NCc1ccc(-c2ccccc2)cc1` (centres unmarked) [TRG 2421-10], the results for the IC50 in assay [1] and in assay [2] were 9.11 µM and 4.77 µM, respectively.

With `COc1ccc(CCNCC2c3ccccc3CN(CCCCC(CN)NCc3ccc(C)cc3)C2c2cc(C(F)(F)F)cc(C(F)(F)F)c2)cc1` (centres unmarked) [TRG 2421-12], the results for the IC50 in assay [1] and in assay [2] were 1.4 µM and 2.57 µM, respectively.

For `COc1ccc(CCNCC2c3ccccc3CN(CCCCC(CN)NCc3ccc(Br)cc3)C2c2cc(C(F)(F)F)cc(C(F)(F)F)c2)cc1` (centres unmarked) [TRG 2421-13], the results for the IC50 in assay [1] and in assay [2] were 8.11 µM and 4.41 µM, respectively.

On to `COc1ccc(CCNCC2c3ccccc3CN(CCCCC(CN)NCc3ccc(OC)cc3)C2c2cc(C(F)(F)F)cc(C(F)(F)F)c2)cc1` (centres unmarked) [TRG 2421-14], for which the figures for the concentration for half-maximal inhibition (IC50) in assay [1] and in assay [2] were 1.69 µM and 3.47 µM, respectively.

In the case of `COc1ccc(CCNCC2c3ccccc3CN(CCCCC(CN)NCc3ccc(-c4ccccc4)cc3)C2c2cc(C(F)(F)F)cc(C(F)(F)F)c2)cc1` (centres unmarked) [TRG 2421-15], the IC50 in assay [1] turned out to be 7.6 µM; in assay [2], 7.81 µM.

`COc1ccc(CCNCC2c3ccccc3CN(CCCCC(CN)NCc3ccccc3)C2c2cc(C(F)(F)F)cc(C(F)(F)F)c2)cc1OC` (centres unmarked) [TRG 2421-16]: the IC50 in assay [1] was found to be 0.36 µM; in assay [2], 2.42 µM.

Consider `COc1ccc(CCNCC2c3ccccc3CN(CCCCC(CN)NCc3ccc(Br)cc3)C2c2cc(C(F)(F)F)cc(C(F)(F)F)c2)cc1OC` (centres unmarked) [TRG 2421-18], for which the IC50 is 1.35 µM in assay [1] and 4.79 µM in assay [2].

Turning to `COc1ccc(CNC(CN)CCCCN2Cc3ccccc3C(CNCCc3ccc(OC)c(OC)c3)C2c2cc(C(F)(F)F)cc(C(F)(F)F)c2)cc1` (centres unmarked) [TRG 2421-19], the results for the IC50 in assay [1] and in assay [2] were 0.52 µM and 1.63 µM, respectively.

For `COc1ccc(CCNCC2c3ccccc3CN(CCCCC(CN)NCc3ccc(-c4ccccc4)cc3)C2c2cc(C(F)(F)F)cc(C(F)(F)F)c2)cc1OC` (centres unmarked) [TRG 2421-20], the IC50 was 1.97 µM in assay [1] and 4.22 µM in assay [2].

Regarding `CCOc1ccc(CCNCC2c3ccccc3CN(CCCCC(CN)NCc3ccccc3)C2c2cc(C(F)(F)F)cc(C(F)(F)F)c2)cc1` (centres unmarked) [TRG 2421-21], the figures for the IC50 in assay [1] and in assay [2] were 3.98 µM and 2.59 µM, respectively.

Turning to `CCOc1ccc(CCNCC2c3ccccc3CN(CCCCC(CN)NCc3ccc(C)cc3)C2c2cc(C(F)(F)F)cc(C(F)(F)F)c2)cc1` (centres unmarked) [TRG 2421-22], the results for the IC50 in assay [1] and in assay [2] were 8.22 µM and 3.02 µM, respectively.

Consider `CCOc1ccc(CCNCC2c3ccccc3CN(CCCCC(CN)NCc3ccc(Br)cc3)C2c2cc(C(F)(F)F)cc(C(F)(F)F)c2)cc1` (centres unmarked) [TRG 2421-23], for which the IC50 in assay [1] was 8.22 µM; in assay [2], 7.44 µM.

As to `CCOc1ccc(CCNCC2c3ccccc3CN(CCCCC(CN)NCc3ccc(OC)cc3)C2c2cc(C(F)(F)F)cc(C(F)(F)F)c2)cc1` (centres unmarked) [TRG 2421-24], the IC50 in assay [1] came to 2.26 µM; in assay [2] it was 2.35 µM.

For the compound `CCOc1ccc(CCNCC2c3ccccc3CN(CCCCC(CN)NCc3ccc(-c4ccccc4)cc3)C2c2cc(C(F)(F)F)cc(C(F)(F)F)c2)cc1` (centres unmarked) [TRG 2421-25], the IC50 in assay [1] was 10.9 µM; in assay [2], 10 µM.

`NCC(CCCCN1Cc2ccccc2C(CNCCc2ccc(Oc3ccccc3)cc2)C1c1cc(C(F)(F)F)cc(C(F)(F)F)c1)NCc1ccccc1` (centres unmarked) [TRG 2421-26]: the IC50 in assay [1] worked out at 12.9 µM; in assay [2], 11.4 µM.

On to `Cc1ccc(CNC(CN)CCCCN2Cc3ccccc3C(CNCCc3ccc(Oc4ccccc4)cc3)C2c2cc(C(F)(F)F)cc(C(F)(F)F)c2)cc1` (centres unmarked) [TRG 2421-27], for which the results for the IC50 in assay [1] and in assay [2] were 9.26 µM and 7.26 µM, respectively.

Turning to `COc1ccc(CNC(CN)CCCCN2Cc3ccccc3C(CNCCc3ccc(Oc4ccccc4)cc3)C2c2cc(C(F)(F)F)cc(C(F)(F)F)c2)cc1` (centres unmarked) [TRG 2421-29], the IC50 in assay [1] amounted to 7.92 µM; in assay [2], 5.1 µM.

With `NCC(CCCCN1Cc2ccccc2C(CNCCc2ccc(Cl)cc2)C1c1cc(C(F)(F)F)cc(C(F)(F)F)c1)NCc1ccccc1` (centres unmarked) [TRG 2421-31], the IC50 in assay [1] was 2.77 µM; in assay [2] it was 5.9 µM.

In the case of `Cc1ccc(CNC(CN)CCCCN2Cc3ccccc3C(CNCCc3ccc(Cl)cc3)C2c2cc(C(F)(F)F)cc(C(F)(F)F)c2)cc1` (centres unmarked) [TRG 2421-32], the IC50 came to 4.15 µM in assay [1] and 5.77 µM in assay [2].

As for `NCC(CCCCN1Cc2ccccc2C(CNCCc2ccc(Cl)cc2)C1c1cc(C(F)(F)F)cc(C(F)(F)F)c1)NCc1ccc(Br)cc1` (centres unmarked) [TRG 2421-33], the IC50 in assay [1] turned out to be 8.36 µM; in assay [2], 6.93 µM.

Regarding `COc1ccc(CNC(CN)CCCCN2Cc3ccccc3C(CNCCc3ccc(Cl)cc3)C2c2cc(C(F)(F)F)cc(C(F)(F)F)c2)cc1` (centres unmarked) [TRG 2421-34], the half-inhibitory concentration (IC50) in assay [1] came to 2.64 µM; in assay [2] it was 4.98 µM.

For `COc1cccc(CCNCC2c3ccccc3CN(CCCCC(CN)NCc3ccccc3)C2c2cc(C(F)(F)F)cc(C(F)(F)F)c2)c1` (centres unmarked) [TRG 2421-36], the results for the concentration for half-maximal inhibition (IC50) in assay [1] and in assay [2] were 0.89 µM and 3.99 µM, respectively.

As to `COc1cccc(CCNCC2c3ccccc3CN(CCCCC(CN)NCc3ccc(C)cc3)C2c2cc(C(F)(F)F)cc(C(F)(F)F)c2)c1` (centres unmarked) [TRG 2421-37], the IC50 is 0.84 µM in assay [1] and 3.08 µM in assay [2].

In the case of `COc1cccc(CCNCC2c3ccccc3CN(CCCCC(CN)NCc3ccc(Br)cc3)C2c2cc(C(F)(F)F)cc(C(F)(F)F)c2)c1` (centres unmarked) [TRG 2421-38], the results for the IC50 in assay [1] and in assay [2] were 1.34 µM and 7.47 µM, respectively.

As for `COc1ccc(CNC(CN)CCCCN2Cc3ccccc3C(CNCCc3cccc(OC)c3)C2c2cc(C(F)(F)F)cc(C(F)(F)F)c2)cc1` (centres unmarked) [TRG 2421-39], the IC50 in assay [1] was determined as 1.04 µM; in assay [2], 3.3 µM.

In the case of `COc1cccc(CCNCC2c3ccccc3CN(CCCCC(CN)NCc3ccc(-c4ccccc4)cc3)C2c2cc(C(F)(F)F)cc(C(F)(F)F)c2)c1` (centres unmarked) [TRG 2421-40], the IC50 came to 3.98 µM in assay [1] and 12.1 µM in assay [2].

Turning to `NCC(CCCCN1Cc2ccccc2C(CNCCc2ccccc2)C1c1cccc(C(F)(F)F)c1)NCc1ccccc1` (centres unmarked) [TRG 2421-41], the IC50 was determined as 1.72 µM in assay [1] and 2.51 µM in assay [2].

Consider `COc1ccc(CNC(CN)CCCCN2Cc3ccccc3C(CNCCc3ccccc3)C2c2cccc(C(F)(F)F)c2)cc1` (centres unmarked) [TRG 2421-42], for which the IC50 in assay [1] worked out at 1.72 µM; in assay [2], 2.15 µM.

`COc1ccc(CCNCC2c3ccccc3CN(CCCCC(CN)NCc3ccccc3)C2c2cccc(C(F)(F)F)c2)cc1` (centres unmarked) [TRG 2421-43]: the figures for the IC50 in assay [1] and in assay [2] were 1.76 µM and 2.15 µM, respectively.

For `COc1ccc(CCNCC2c3ccccc3CN(CCCCC(CN)NCc3ccc(OC)cc3)C2c2cccc(C(F)(F)F)c2)cc1` (centres unmarked) [TRG 2421-44], the IC50 in assay [1] was 1.42 µM; in assay [2], 1.54 µM.

In the case of `CCOc1ccc(CCNCC2c3ccccc3CN(CCCCC(CN)NCc3ccccc3)C2c2cccc(C(F)(F)F)c2)cc1` (centres unmarked) [TRG 2421-45], the IC50 came to 2.73 µM in assay [1] and 0.98 µM in assay [2].

As to `CCOc1ccc(CCNCC2c3ccccc3CN(CCCCC(CN)NCc3ccc(OC)cc3)C2c2cccc(C(F)(F)F)c2)cc1` (centres unmarked) [TRG 2421-46], the results for the IC50 in assay [1] and in assay [2] were 3.61 µM and 1.58 µM, respectively.

As for `COc1cccc(CCNCC2c3ccccc3CN(CCCCC(CN)NCc3ccccc3)C2c2cccc(C(F)(F)F)c2)c1` (centres unmarked) [TRG 2421-47], the IC50 in assay [1] was 1.37 µM; in assay [2], 2.71 µM.

Turning to `COc1ccc(CNC(CN)CCCCN2Cc3ccccc3C(CNCCc3cccc(OC)c3)C2c2cccc(C(F)(F)F)c2)cc1` (centres unmarked) [TRG 2421-48], the IC50 was 0.95 µM in assay [1] and 1.74 µM in assay [2].

A word on the IC50: it is the concentration that inhibits the measured activity by half.
